Like-named read-outs stand apart in the source and are kept apart here.
How the values were obtained:
[1] = system: patients with myelofibrosis; conditions: cited from earlier work
[2] = system: patients with myelofibrosis resistant/intolerant to prior ruxolitinib; design: method as in doi:10.1182/blood-2022-156669; conditions: fedratinib 400 mg/day, FREEDOM trial, 38 patients; cited from earlier work
[3] = design: method as in earlier work; conditions: 400 mg dosing in patients with myelofibrosis; range 2–4 h; cited from earlier work
[4] = system: healthy adults; experiment: Safety assessment (adverse events) in the phase 1 study; assay type: in vivo, human
Experimental: Participants were monitored for adverse events (AEs) during the study, including assessments for clinical symptoms, biochemical, hematologic, and urinalysis laboratory results, physical examinations, 12-lead electrocardiograms, and vital signs. AEs were assessed for seriousness, severity, and relationship to the drug. AEs were assigned to the last study treatment administered at the time of onset, starting during or after the administration of the first dose. AEs that occurred after discharge were assigned to the last study treatment received for up to 30 days after the last dose of fedratinib.

[5] = In vitro drug recovery from the nasogastric tube and stability in suspension (data on file); assay type: physicochemical; conditions: in vitro studies
Text: Reduced exposure was also unlikely to be due to misplacement of the nasogastric tube, as placement was confirmed through X-ray imaging (data on file). The differences in exposure to fedratinib between treatments 2B, 2C, and 2A were likely to be due to interparticipant variability. Furthermore, the 90% CI for the difference in exposure to fedratinib between treatments 2B and 2A fell within the 0.8–1.25 range conventionally defined as having no clinical effect.

[6] = design: method as in PMID 27136912; conditions: 100 mg and 500 mg doses, healthy volunteers; cited from earlier work

Cc1cnc(Nc2ccc(OCCN3CCCC3)cc2)nc1Nc1cccc(S(=O)(=O)NC(C)(C)C)c1 [fedratinib]
Patients who experienced nausea ([1]; FREEDOM study): 39.5%
Patients who experienced nausea ([1]; JAKARTA trial): 62%
Patients achieving ≥ 35% spleen volume reduction at the end of cycle 6 [2]: 25.7%
Patients achieving ≥ 50% reduction in total symptom score at end of cycle 6 [2]: 44.4%
Patients with best overall response of ≥ 35% spleen volume reduction at any time [2]: 62.9%
Time to peak concentration, median [3]: 3 h
Deaths or serious/severe AEs ([4]; during the study, all treatments): no deaths or serious/severe AEs were reported
AE constipation, participants ([4]; human, in vivo): 12.1%
AE diarrhea, participants ([4]; human, in vivo): 10.3%
AE somnolence, participants ([4]; human, in vivo): 10.3%
Moderate AEs reported (number of AEs) ([4]; human, in vivo): 4
Participants discontinued due to AEs ([4]; human, in vivo): 3 participants
Participants with at least 1 AE ([4]; human, in vivo): 65.5%
Drug recovery from the nasogastric tube [5]: near-complete drug recovery
Stability in suspension [5]: stable up to 1 h in suspension
Increases in exposure (Cmax, AUC) when administered directly after food vs 10-h fasted [6]: < 25%
Terminal elimination half-life (t½), fed vs fasted conditions [6]: remained unaffected
